Reference: PubChem BioAssay AID328 (DTP/NCI, 2004)
Values joined by “and” are separate entries in the source; they are usually repeats but may differ in a detail not shown here. Equal entries are not always repeated. Inconclusive results and toxic doses are left out. Rule for the calls: active = survival T/C of 150% or more; inactive = T/C below 125% in these data.

Tested on: BDF1 mice, P388 leukemia ip, median survival T/C
Assay: NCI In Vivo Anticancer Drug Screen. Data for tumor model P388 Leukemia (intraperitoneal) in B6D2F1 (BDF1) mice
Conditions: endpoint: median survival time, higher = longer survival
How it was run: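 Transplantable tumour in mice; compound vs vehicle dosing; survival scored; ratio of treated to control reported.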

[1] = dose: 25.0 mg/kg/injection, schedule: Q01DX009 (ip), vehicle: saline with Tween-80
[2] = dose: 50.0 mg/kg/injection, schedule: Q01DX009 (ip), vehicle: saline with Tween-80
[3] = dose: 100.0 mg/kg/injection, schedule: Q01DX009 (ip), vehicle: saline with Tween-80
[4] = dose: 100.0 mg/kg/injection, schedule: Q04DX003 (ip), vehicle: saline with Tween-80
[5] = dose: 200.0 mg/kg/injection, schedule: Q01DX009 (ip), vehicle: saline with Tween-80
[6] = dose: 200.0 mg/kg/injection, schedule: Q04DX003 (ip), vehicle: saline with Tween-80
[7] = dose: 400.0 mg/kg/injection, schedule: Q01DX009 (ip), vehicle: saline with Tween-80
[8] = dose: 400.0 mg/kg/injection, schedule: Q04DX003 (ip), vehicle: saline with Tween-80

Measured: T/C

c1ccc2c(c1)[nH]c1c2c[n+]2c3c(cccc13)CCC2
inactive: dose: 3.13 mg/kg/injection, schedule: Q01DX009 (ip), vehicle: saline 119 % of control | dose: 3.66 mg/kg/injection, schedule: Q01DX009 (ip), vehicle: saline 110 % of control | dose: 5.49 mg/kg/injection, schedule: Q01DX009 (ip), vehicle: saline 105 % of control | dose: 6.25 mg/kg/injection, schedule: Q01DX009 (ip), vehicle: saline 104 % of control

CC(=O)C(O)N1C(=O)C=CC1=O (stereo not drawn)
inactive: dose: 0.31 mg/kg/injection, schedule: Q04DX003 (ip), vehicle: saline 95 % of control | dose: 0.62 mg/kg/injection, schedule: Q04DX003 (ip), vehicle: saline 100 % of control | dose: 1.25 mg/kg/injection, schedule: Q04DX003 (ip), vehicle: saline 100 % of control | dose: 2.5 mg/kg/injection, schedule: Q04DX003 (ip), vehicle: saline 91 % of control | dose: 5.0 mg/kg/injection, schedule: Q04DX003 (ip), vehicle: saline 91 % of control

O=S(=O)(F)c1cccc(C[P+](c2ccccc2)(c2ccccc2)c2ccccc2)c1
inactive: dose: 5.5 mg/kg/injection, schedule: Q01DX009 (ip), vehicle: Klucel (hydroxypropylcellulose) (HPC) 118 % of control | dose: 70.0 mg/kg/injection, schedule: Q04DX003 (ip), vehicle: Klucel (hydroxypropylcellulose) (HPC) 118 % of control and 120 % of control | dose: 73.0 mg/kg/injection, schedule: Q04DX003 (ip), vehicle: Klucel (hydroxypropylcellulose) (HPC) 118 % of control | dose: 170.0 mg/kg/injection, schedule: Q04DX003 (ip), vehicle: Klucel (hydroxypropylcellulose) (HPC) 95 % of control | dose: 255.0 mg/kg/injection, schedule: Q04DX003 (ip), vehicle: Klucel (hydroxypropylcellulose) (HPC) 108 % of control and 120 % of control

O=[N+]([O-])c1ccc(S(=O)(=O)c2ccccc2)c2nonc12
inactive: [1] 107 % of control | [2] 98 % of control

CN1c2ccc3ccccc3c2Sc2ccc3ccccc3c21
inactive: [3] 113 % of control | [4] 100 % of control | [5] 104 % of control | [6] 95 % of control | [7] 104 % of control | [8] 90 % of control

O=c1c2ccccc2[nH]c2c([N+](=O)[O-])ccc(Oc3cccc(C(F)(F)F)c3)c12
inactive: dose: 100.0 mg/kg/injection, schedule: Q04DX002 (ip), vehicle: saline with Tween-80 90 % of control | dose: 200.0 mg/kg/injection, schedule: Q04DX002 (ip), vehicle: saline with Tween-80 102 % of control | dose: 400.0 mg/kg/injection, schedule: Q04DX002 (ip), vehicle: saline with Tween-80 92 % of control

O=C1/C(=C\c2ccco2)SC(=S)N1c1ccccc1
inactive: dose: 10.0 mg/kg/injection, schedule: Q01DX009 (ip), vehicle: saline with Tween-80 96 % of control | dose: 20.0 mg/kg/injection, schedule: Q01DX009 (ip), vehicle: saline with Tween-80 89 % of control | dose: 40.0 mg/kg/injection, schedule: Q01DX009 (ip), vehicle: saline with Tween-80 98 % of control

COC(=O)C1=C(C)N[C@@]2(C)[C@H](C(=O)OC)C[C@H]1C2(C(C)=O)C(C)=O
inactive: [2] 116 % of control | [3] 109 % of control | [5] 109 % of control

c1cncc(-c2ncnc3c2Cc2ccccc2-3)c1
inactive: dose: 75.0 mg/kg/injection, schedule: Q01DX009 (ip), vehicle: Klucel (hydroxypropylcellulose) (HPC) 100 % of control | dose: 150.0 mg/kg/injection, schedule: Q01DX009 (ip), vehicle: Klucel (hydroxypropylcellulose) (HPC) 113 % of control

C=C1C(=O)OC2/C=C(/C)C(OC(C)=O)CC(O)/C(C)=C\C(OC(=O)/C(C)=C\C)C12 (stereo not drawn)
inactive: dose: 2.5 mg/kg/injection, schedule: Q01DX009 (ip), vehicle: saline + alcohol 100 % of control | dose: 5.0 mg/kg/injection, schedule: Q01DX009 (ip), vehicle: saline + alcohol 118 % of control | dose: 10.0 mg/kg/injection, schedule: Q01DX009 (ip), vehicle: saline + alcohol 109 % of control | dose: 20.0 mg/kg/injection, schedule: Q01DX009 (ip), vehicle: saline + alcohol 109 % of control | dose: 27.0 mg/kg/injection, schedule: Q01DX010 (ip), vehicle: saline 115 % of control | dose: 40.0 mg/kg/injection, schedule: Q01DX009 (ip), vehicle: saline + alcohol 122 % of control | dose: 40.0 mg/kg/injection, schedule: Q01DX010 (ip), vehicle: saline 110 % of control | dose: 80.0 mg/kg/injection, schedule: Q01DX009 (ip), vehicle: saline + alcohol 86 % of control

CC(N)Cc1ccc(N(C)C)cc1F (stereo not drawn)
inactive: [1] 96 % of control | dose: 25.0 mg/kg/injection, schedule: Q01DX009 (ip), vehicle: saline 103 % of control | [2] 96 % of control | dose: 50.0 mg/kg/injection, schedule: Q01DX009 (ip), vehicle: saline 98 % of control and 107 % of control | [3] 107 % of control | dose: 100.0 mg/kg/injection, schedule: Q01DX009 (ip), vehicle: saline 96 % of control

COC(OC)c1[nH]c(=S)[nH]c(=O)c1Cc1cc(C)ccc1C
inactive: dose: 50.0 mg/kg/injection, schedule: Q04DX003 (ip), vehicle: Klucel (hydroxypropylcellulose) (HPC) 95 % of control | dose: 100.0 mg/kg/injection, schedule: Q01DX001 (ip), vehicle: Klucel (hydroxypropylcellulose) (HPC) 104 % of control | dose: 100.0 mg/kg/injection, schedule: Q04DX003 (ip), vehicle: Klucel (hydroxypropylcellulose) (HPC) 100 % of control | dose: 200.0 mg/kg/injection, schedule: Q01DX001 (ip), vehicle: Klucel (hydroxypropylcellulose) (HPC) 104 % of control | dose: 200.0 mg/kg/injection, schedule: Q04DX003 (ip), vehicle: Klucel (hydroxypropylcellulose) (HPC) 95 % of control | dose: 400.0 mg/kg/injection, schedule: Q01DX001 (ip), vehicle: Klucel (hydroxypropylcellulose) (HPC) 109 % of control

CCN(CCN)c1cccc(C)c1
inactive: dose: 25.0 mg/kg/injection, schedule: Q04DX003 (ip), vehicle: saline sonified 100 % of control | dose: 50.0 mg/kg/injection, schedule: Q04DX003 (ip), vehicle: saline sonified 120 % of control | dose: 100.0 mg/kg/injection, schedule: Q04DX003 (ip), vehicle: saline sonified 100 % of control

Cc1cnc2nc(N)[nH]c(=O)c2c1
inactive: dose: 37.5 mg/kg/injection, schedule: Q04DX003 (ip), vehicle: saline sonified 100 % of control | dose: 75.0 mg/kg/injection, schedule: Q04DX003 (ip), vehicle: saline sonified 110 % of control | dose: 150.0 mg/kg/injection, schedule: Q04DX003 (ip), vehicle: saline sonified 100 % of control

O=C(O)c1ccccc1C(=O)Nc1cc(C(F)(F)F)ccc1Cl
inactive: [4] 90 % of control | [6] 104 % of control | [8] 118 % of control

O=c1cc(-c2cccnc2)oc2c1ccc1ccccc12
inactive: dose: 12.5 mg/kg/injection, schedule: Q01DX009 (ip), vehicle: other 89 % of control | dose: 25.0 mg/kg/injection, schedule: Q01DX009 (ip), vehicle: other 91 % of control | dose: 50.0 mg/kg/injection, schedule: Q01DX009 (ip), vehicle: other 95 % of control | dose: 100.0 mg/kg/injection, schedule: Q01DX009 (ip), vehicle: other 91 % of control | dose: 200.0 mg/kg/injection, schedule: Q01DX009 (ip), vehicle: other 87 % of control

O=Cc1c2ccc(Cl)cc2nc2ccc(Cl)cc12
inactive: dose: 100.0 mg/kg/injection, schedule: Q01DX001 (ip), vehicle: saline with Tween-80 100 % of control | dose: 200.0 mg/kg/injection, schedule: Q01DX001 (ip), vehicle: saline with Tween-80 100 % of control | dose: 400.0 mg/kg/injection, schedule: Q01DX001 (ip), vehicle: saline with Tween-80 100 % of control

Nc1ccc(N2N=C(N3CCCC3)CC2=O)cc1
inactive: dose: 50.0 mg/kg/injection, schedule: Q01DX005 (ip), vehicle: saline with Tween-80 89 % of control | dose: 100.0 mg/kg/injection, schedule: Q01DX005 (ip), vehicle: saline with Tween-80 89 % of control | dose: 200.0 mg/kg/injection, schedule: Q01DX005 (ip), vehicle: saline with Tween-80 103 % of control

O=C(CC(NC(=O)OCc1ccccc1)C(=O)OCc1ccccc1)OCc1ccccc1 (stereo not drawn)
inactive: [3] 97 % of control | [5] 108 % of control | [7] 97 % of control

Cc1c2oc3c(C)ccc(C(=O)NC(C)Cc4ccccc4)c3nc-2c(C(=O)NC(C)Cc2ccccc2)c(N)c1=O (stereo not drawn)
inactive: dose: 100.0 mg/kg/injection, schedule: Q04DX002 (ip), vehicle: DMSO 87 % of control | dose: 200.0 mg/kg/injection, schedule: Q04DX002 (ip), vehicle: DMSO 92 % of control
